Measurements reported in US20240209001A1, “HETEROCYCLIC DERIVATIVES AS JANUS KINASE INHIBITORS” (CHIESI FARMACEUTICI S.P. A., priority 2021, published 2024).

Legend:
[1] = target: JAK 1 (Homo sapiens (Human), UniProt P23458); test: Biochemical potency on JAK1, TR-FRET LANCE Ultra kinase assay (compounds 1-92); settings: ATP at Km, read-out: JAK1 inhibitory activity (pIC50 class) (converted)
Procedure, shortened: (§1)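 TR-FRET (LANCE Ultra) phosphorylation of ULight-JAK-1 peptide, ATP at Km: JAK1/JAK2/JAK3/TYK2 peptide 30/50/20/10 nM, ATP 20/0.7/0.2/12 μM, enzyme 0.15/0.083/0.025/0.144 ng/μL. 11-point 5-fold series from 20 μM; 1.5 h RT, EDTA stop, Eu-anti-pTyr detection 1 h; IC50 by variable-slope fit.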

[2] = target: JAK 2 (Homo sapiens (Human), UniProt O60674); test: Biochemical potency on JAK2, TR-FRET LANCE Ultra kinase assay (compounds 1-92); settings: ATP at Km, read-out: JAK2 inhibitory activity (pIC50 class) (converted)
Sequence of JAK 2 (O60674 whole entry): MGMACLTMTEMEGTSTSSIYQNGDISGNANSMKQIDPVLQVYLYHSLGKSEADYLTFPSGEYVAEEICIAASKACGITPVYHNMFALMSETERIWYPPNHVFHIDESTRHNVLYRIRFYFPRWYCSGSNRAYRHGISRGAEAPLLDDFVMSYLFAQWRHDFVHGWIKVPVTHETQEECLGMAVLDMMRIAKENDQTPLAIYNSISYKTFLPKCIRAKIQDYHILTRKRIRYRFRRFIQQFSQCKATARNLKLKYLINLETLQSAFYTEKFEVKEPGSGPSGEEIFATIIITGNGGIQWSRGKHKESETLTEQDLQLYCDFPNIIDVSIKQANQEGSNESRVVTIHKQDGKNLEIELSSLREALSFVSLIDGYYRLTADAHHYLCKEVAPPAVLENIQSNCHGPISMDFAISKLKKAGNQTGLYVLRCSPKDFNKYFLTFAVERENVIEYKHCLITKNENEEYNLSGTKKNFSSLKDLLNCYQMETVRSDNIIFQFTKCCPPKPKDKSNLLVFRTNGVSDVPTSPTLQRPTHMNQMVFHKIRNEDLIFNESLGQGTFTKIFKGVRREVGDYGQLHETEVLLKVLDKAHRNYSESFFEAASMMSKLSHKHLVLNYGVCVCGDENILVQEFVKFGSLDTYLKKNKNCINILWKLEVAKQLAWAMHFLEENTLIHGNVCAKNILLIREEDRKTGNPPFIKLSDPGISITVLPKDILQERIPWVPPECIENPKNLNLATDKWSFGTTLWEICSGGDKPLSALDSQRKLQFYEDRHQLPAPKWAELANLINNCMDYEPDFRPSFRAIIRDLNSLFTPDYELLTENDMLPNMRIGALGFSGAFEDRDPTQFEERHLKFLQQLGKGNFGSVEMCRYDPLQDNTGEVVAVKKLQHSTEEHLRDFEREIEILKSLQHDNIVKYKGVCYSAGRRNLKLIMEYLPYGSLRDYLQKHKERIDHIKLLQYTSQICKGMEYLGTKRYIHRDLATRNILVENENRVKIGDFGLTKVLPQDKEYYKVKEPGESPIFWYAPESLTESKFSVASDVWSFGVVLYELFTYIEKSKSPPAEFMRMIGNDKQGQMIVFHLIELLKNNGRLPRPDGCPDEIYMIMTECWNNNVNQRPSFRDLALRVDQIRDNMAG
Procedure, shortened: as §1

[3] = target: JAK 3 (Homo sapiens (Human), UniProt P52333); test: Biochemical potency on JAK3, TR-FRET LANCE Ultra kinase assay (compounds 1-92); settings: ATP at Km, read-out: JAK3 inhibitory activity (pIC50 class) (converted)
Sequence of JAK 3 (P52333 whole entry): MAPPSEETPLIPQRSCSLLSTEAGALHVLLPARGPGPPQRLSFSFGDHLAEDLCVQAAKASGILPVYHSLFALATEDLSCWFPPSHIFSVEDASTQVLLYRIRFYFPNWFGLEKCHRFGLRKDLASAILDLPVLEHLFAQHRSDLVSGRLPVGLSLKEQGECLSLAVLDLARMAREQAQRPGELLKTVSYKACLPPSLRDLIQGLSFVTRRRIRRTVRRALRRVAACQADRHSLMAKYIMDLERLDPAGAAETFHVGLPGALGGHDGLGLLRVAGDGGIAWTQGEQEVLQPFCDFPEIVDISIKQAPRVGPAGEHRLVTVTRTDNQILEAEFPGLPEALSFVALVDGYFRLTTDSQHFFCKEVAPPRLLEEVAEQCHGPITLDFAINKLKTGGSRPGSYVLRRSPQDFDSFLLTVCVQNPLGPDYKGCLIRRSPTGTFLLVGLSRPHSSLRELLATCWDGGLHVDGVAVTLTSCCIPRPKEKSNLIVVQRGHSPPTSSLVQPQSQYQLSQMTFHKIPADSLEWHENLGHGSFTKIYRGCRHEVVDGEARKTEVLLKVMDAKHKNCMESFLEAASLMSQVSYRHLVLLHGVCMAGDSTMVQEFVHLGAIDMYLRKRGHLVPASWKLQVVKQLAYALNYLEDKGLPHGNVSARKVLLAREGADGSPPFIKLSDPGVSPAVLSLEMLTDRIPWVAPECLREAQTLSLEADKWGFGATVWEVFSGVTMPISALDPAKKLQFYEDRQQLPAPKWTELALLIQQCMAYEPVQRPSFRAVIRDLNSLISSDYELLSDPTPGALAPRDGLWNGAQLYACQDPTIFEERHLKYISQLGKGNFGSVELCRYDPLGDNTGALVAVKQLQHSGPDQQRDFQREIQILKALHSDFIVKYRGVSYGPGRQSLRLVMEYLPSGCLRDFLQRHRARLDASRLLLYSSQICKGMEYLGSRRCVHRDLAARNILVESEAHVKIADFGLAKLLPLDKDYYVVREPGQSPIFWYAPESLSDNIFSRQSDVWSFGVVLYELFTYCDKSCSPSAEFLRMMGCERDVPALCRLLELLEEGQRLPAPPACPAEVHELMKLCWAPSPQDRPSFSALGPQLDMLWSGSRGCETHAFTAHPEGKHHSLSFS
Procedure, shortened: as §1

[4] = target: TYK2 (Homo sapiens (Human), UniProt P29597); test: Biochemical potency on Tyk2, TR-FRET LANCE Ultra kinase assay (compounds 1-92); settings: ATP at Km, read-out: Tyk2 inhibitory activity (pIC50 class) (converted)
Sequence of TYK2 (P29597 whole entry): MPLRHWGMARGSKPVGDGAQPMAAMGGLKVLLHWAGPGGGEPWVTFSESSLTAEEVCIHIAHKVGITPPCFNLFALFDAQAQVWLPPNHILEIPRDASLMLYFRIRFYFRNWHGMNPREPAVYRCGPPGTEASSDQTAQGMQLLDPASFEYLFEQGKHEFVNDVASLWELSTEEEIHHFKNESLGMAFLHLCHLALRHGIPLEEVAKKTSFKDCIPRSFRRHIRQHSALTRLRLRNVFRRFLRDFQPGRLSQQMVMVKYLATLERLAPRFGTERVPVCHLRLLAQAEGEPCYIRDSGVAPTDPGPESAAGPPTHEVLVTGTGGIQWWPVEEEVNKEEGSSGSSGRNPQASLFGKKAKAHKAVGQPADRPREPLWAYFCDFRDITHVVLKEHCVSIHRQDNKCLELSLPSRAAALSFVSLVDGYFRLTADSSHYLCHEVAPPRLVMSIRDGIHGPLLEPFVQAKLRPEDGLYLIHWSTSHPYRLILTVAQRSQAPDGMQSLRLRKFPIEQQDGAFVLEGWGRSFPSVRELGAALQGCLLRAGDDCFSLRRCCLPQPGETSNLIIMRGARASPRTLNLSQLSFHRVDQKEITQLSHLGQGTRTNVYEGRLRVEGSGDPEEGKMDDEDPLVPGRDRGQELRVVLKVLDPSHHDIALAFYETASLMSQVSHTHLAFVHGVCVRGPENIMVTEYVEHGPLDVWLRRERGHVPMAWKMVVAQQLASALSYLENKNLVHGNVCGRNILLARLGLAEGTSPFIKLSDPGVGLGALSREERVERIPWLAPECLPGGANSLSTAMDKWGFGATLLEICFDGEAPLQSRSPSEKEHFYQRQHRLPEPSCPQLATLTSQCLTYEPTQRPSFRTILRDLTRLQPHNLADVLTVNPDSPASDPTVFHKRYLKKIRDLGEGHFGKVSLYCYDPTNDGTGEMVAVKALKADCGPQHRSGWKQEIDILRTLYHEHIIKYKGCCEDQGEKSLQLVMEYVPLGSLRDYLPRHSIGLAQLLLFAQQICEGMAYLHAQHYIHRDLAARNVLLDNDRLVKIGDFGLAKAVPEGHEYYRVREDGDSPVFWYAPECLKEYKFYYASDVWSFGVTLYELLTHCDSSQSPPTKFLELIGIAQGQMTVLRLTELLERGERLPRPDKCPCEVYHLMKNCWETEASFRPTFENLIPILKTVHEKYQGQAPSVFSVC
Procedure, shortened: as §1

Sequence of JAK 1 (P23458 whole entry): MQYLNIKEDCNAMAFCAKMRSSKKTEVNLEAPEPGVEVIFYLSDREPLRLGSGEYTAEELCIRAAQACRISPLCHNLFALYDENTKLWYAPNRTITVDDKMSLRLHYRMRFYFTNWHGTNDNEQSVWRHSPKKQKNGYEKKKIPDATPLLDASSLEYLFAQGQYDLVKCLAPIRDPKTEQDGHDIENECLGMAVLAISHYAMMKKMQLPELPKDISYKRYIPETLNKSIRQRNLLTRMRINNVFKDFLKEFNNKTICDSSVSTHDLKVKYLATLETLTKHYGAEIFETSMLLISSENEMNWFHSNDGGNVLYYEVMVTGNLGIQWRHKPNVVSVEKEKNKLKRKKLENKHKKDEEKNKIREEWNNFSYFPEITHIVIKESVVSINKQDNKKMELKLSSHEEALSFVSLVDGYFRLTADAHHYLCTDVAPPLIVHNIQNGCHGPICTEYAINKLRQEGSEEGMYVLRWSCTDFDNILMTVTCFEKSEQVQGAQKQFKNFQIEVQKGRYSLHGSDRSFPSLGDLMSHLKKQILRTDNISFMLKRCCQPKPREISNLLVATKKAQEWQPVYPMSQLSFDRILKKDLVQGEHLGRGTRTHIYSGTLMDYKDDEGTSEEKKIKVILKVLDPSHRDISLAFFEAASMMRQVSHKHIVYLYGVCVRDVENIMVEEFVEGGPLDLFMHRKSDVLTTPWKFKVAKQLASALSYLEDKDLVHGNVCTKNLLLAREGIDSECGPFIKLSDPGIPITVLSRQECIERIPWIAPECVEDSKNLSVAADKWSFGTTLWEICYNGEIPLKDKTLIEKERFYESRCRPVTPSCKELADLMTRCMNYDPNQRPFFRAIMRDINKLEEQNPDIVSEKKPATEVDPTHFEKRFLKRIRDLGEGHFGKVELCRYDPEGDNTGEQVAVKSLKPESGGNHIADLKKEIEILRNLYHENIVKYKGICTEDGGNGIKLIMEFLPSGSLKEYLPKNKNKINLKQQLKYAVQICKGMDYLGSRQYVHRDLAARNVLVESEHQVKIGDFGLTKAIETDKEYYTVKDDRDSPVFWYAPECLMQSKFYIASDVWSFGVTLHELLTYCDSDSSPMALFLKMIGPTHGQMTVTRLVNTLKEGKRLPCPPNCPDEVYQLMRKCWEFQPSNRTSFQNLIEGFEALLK

| IC50 [1] | IC50 [2] | IC50 [3] | IC50 [4] | SMILES |
| --- | --- | --- | --- | --- |
| ≤ 5.01 nM | ≤ 5.01 nM | 5.01 to 50.1 nM | 5.01 to 50.1 nM | COc1cc(NS(C)(=O)=O)ccc1-n1nc(C(=O)NCCCN(C)C)c2cnc(-c3cnn4cccnc34)cc21 [Example 43, N-(3-(dimethylamino)propyl)-1-(2-methoxy-4-(methylsulfonamido)phenyl)-6-(pyrazolo[1,5-a]pyrimidin-3-yl)-1H-pyrazolo[4,3-c]pyridine-3-carboxamide] |
| ≤ 5.01 nM | ≤ 5.01 nM | ≤ 5.01 nM | > 50.1 nM | COc1cc(NS(C)(=O)=O)cnc1-n1nc(C)c2cnc(-c3cnn4cccnc34)cc21 [Example 11, N-(5-methoxy-6-(3-methyl-6-(pyrazolo[1,5-a]pyrimidin-3-yl)-1H-pyrazolo[4,3-c]pyridin-1-yl)pyridin-3-yl)methanesulfonamide] |
| ≤ 5.01 nM | ≤ 5.01 nM | ≤ 5.01 nM | 5.01 to 50.1 nM | COc1cc(CN(C)S(C)(=O)=O)ccc1-n1nc(C)c2cnc(-c3cnn4cccnc34)cc21 [Example 65, N-(3-methoxy-4-(3-methyl-6-(pyrazolo[1,5-a]pyrimidin-3-yl)-1H-pyrazolo[4,3-c]pyridin-1-yl)benzyl)-N-methylmethanesulfonamide] |
| 5.01 to 50.1 nM | 5.01 to 50.1 nM | 5.01 to 50.1 nM | > 50.1 nM | CNC(=O)NCc1ccc(-n2nc(C)c3cnc(-c4cnn5cccnc45)cc32)c(OC)c1 [Example 71, 1-(3-methoxy-4-(3-methyl-6-(pyrazolo[1,5-a]pyrimidin-3-yl)-1H-pyrazolo[4,3-c]pyridin-1-yl)benzyl)-3-methylurea] |
| ≤ 5.01 nM | ≤ 5.01 nM | ≤ 5.01 nM | 5.01 to 50.1 nM | CCCS(=O)(=O)Nc1ccc(-n2nc(NCCN3CCCCC3)c3cnc(Nc4ncc[nH]c4=O)cc32)c(OC)c1 [Example 88, N-(3-methoxy-4-(6-((3-oxo-3,4-dihydropyrazin-2-yl)amino)-3-((2-(piperidin-1-yl)ethyl)amino)-1H-pyrazolo[4,3-c]pyridin-1-yl)phenyl)propane-1-sulfonamide] |
| ≤ 5.01 nM | 5.01 to 50.1 nM | 5.01 to 50.1 nM | 5.01 to 50.1 nM | COc1cc(NS(=O)(=O)C2CC2)ccc1-n1nc(NCCN2CCOCC2)c2cnc(-c3cnn4cccnc34)cc21 [Example 34, N-(3-methoxy-4-(3-((2-morpholinoethyl)amino)-6-(pyrazolo[1,5-a]pyrimidin-3-yl)-1H-pyrazolo[4,3-c]pyridin-1-yl)phenyl)cyclopropanesulfonamide] |
| 5.01 to 50.1 nM | 5.01 to 50.1 nM | 5.01 to 50.1 nM | > 50.1 nM | CCCS(=O)(=O)Nc1ccc(-n2nc(C(=O)NCCCN3CCOCC3)c3cnc(-c4cnn5cccnc45)cc32)c(OC)c1 [Example 47, 1-(2-methoxy-4-(propylsulfonamido)phenyl)-N-(3-morpholinopropyl)-6-(pyrazolo[1,5-a]pyrimidin-3-yl)-1H-pyrazolo[4,3-c]pyridine-3-carboxamide] |

Continued, compound first:

| SMILES | IC50 [1] | IC50 [2] | IC50 [3] | IC50 [4] |
| --- | --- | --- | --- | --- |
| COc1cc(NS(C)(=O)=O)ccc1-n1nc(NCCN2CCN(C)CC2)c2cnc(-c3cnn4cccnc34)cc21 [Example 38, N-(3-methoxy-4-(3-((2-(4-methylpiperazin-1-yl)ethyl)amino)-6-(pyrazolo[1,5-a]pyrimidin-3-yl)-1H-pyrazolo[4,3-c]pyridin-1-yl)phenyl)methanesulfonamide] | ≤ 5.01 nM | ≤ 5.01 nM | ≤ 5.01 nM | 5.01 to 50.1 nM |
| COc1cc(NC(=O)c2ccccc2)ccc1-n1nc(C)c2cnc(-c3cnn4cccnc34)cc21 [Example 74, N-(3-methoxy-4-(3-methyl-6-(pyrazolo[1,5-a]pyrimidin-3-yl)-1H-pyrazolo[4,3-c]pyridin-1-yl)phenyl)benzamide] | 5.01 to 50.1 nM | 5.01 to 50.1 nM | 5.01 to 50.1 nM | > 50.1 nM |
| COc1cc(NS(C)(=O)=O)ccc1-n1nc(C)c2cnc(-c3cnn4cccnc34)cc21 [Example 1, N-(3-methoxy-4-(3-methyl-6-(pyrazolo[1,5-a]pyrimidin-3-yl)-1H-pyrazolo[4,3-c]pyridin-1-yl)phenyl)methanesulfonamide] | ≤ 5.01 nM | ≤ 5.01 nM | ≤ 5.01 nM | 5.01 to 50.1 nM |
| COc1cc(NS(C)(=O)=O)ccc1-n1nc(NCCN(C)C)c2cnc(-c3cnn4cccnc34)cc21 [Example 31, N-(4-(3-((2-(dimethylamino)ethyl)amino)-6-(pyrazolo[1,5-a]pyrimidin-3-yl)-1H-pyrazolo[4,3-c]pyridin-1-yl)-3-methoxyphenyl)methanesulfonamide] | ≤ 5.01 nM | ≤ 5.01 nM | ≤ 5.01 nM | 5.01 to 50.1 nM |
| COc1cc(NS(=O)(=O)CCC(N)=O)ccc1-n1nc(C)c2cnc(-c3cnn4cccnc34)cc21 [Example 13, 3-(N-(3-methoxy-4-(3-methyl-6-(pyrazolo[1,5-a]pyrimidin-3-yl)-1H-pyrazolo[4,3-c]pyridin-1-yl)phenyl)sulfamoyl)propanamide] | ≤ 5.01 nM | ≤ 5.01 nM | ≤ 5.01 nM | 5.01 to 50.1 nM |
| COc1cc(NS(C)(=O)=O)ccc1-n1nc(NCCO)c2cnc(-c3cnn4cccnc34)cc21 [Example 26, N-(4-(3-((2-hydroxyethyl)amino)-6-(pyrazolo[1,5-a]pyrimidin-3-yl)-1H-pyrazolo[4,3-c]pyridin-1-yl)-3-methoxyphenyl)methanesulfonamide] | ≤ 5.01 nM | ≤ 5.01 nM | ≤ 5.01 nM | 5.01 to 50.1 nM |
| Cc1nn(-c2ccc(CNS(C)(=O)=O)cc2OC(F)F)c2cc(-c3cnn4cccnc34)ncc12 [Example 61, N-(3-(difluoromethoxy)-4-(3-methyl-6-(pyrazolo[1,5-a]pyrimidin-3-yl)-1H-pyrazolo[4,3-c]pyridin-1-yl)benzyl)methanesulfonamide] | ≤ 5.01 nM | ≤ 5.01 nM | ≤ 5.01 nM | 5.01 to 50.1 nM |
| Cc1nn(-c2ccc(NS(C)(=O)=O)cc2OC(F)F)c2cc(-c3cnn4cccnc34)ncc12 [Example 7, N-(3-(difluoromethoxy)-4-(3-methyl-6-(pyrazolo[1,5-a]pyrimidin-3-yl)-1H-pyrazolo[4,3-c]pyridin-1-yl)phenyl)methanesulfonamide] | ≤ 5.01 nM | ≤ 5.01 nM | ≤ 5.01 nM | 5.01 to 50.1 nM |
| COc1cc(CNS(C)(=O)=O)ccc1-n1nc(C)c2cnc(-c3cnn4cccnc34)cc21 [Example 63, N-(3-methoxy-4-(3-methyl-6-(pyrazolo[1,5-a]pyrimidin-3-yl)-1H-pyrazolo[4,3-c]pyridin-1-yl)benzyl)methanesulfonamide] | ≤ 5.01 nM | ≤ 5.01 nM | ≤ 5.01 nM | 5.01 to 50.1 nM |
| CNS(=O)(=O)c1ccc(-n2nc(C)c3cnc(-c4cnn5cccnc45)cc32)c(OC)c1 [Example 49, 3-methoxy-N-methyl-4-(3-methyl-6-(pyrazolo[1,5-a]pyrimidin-3-yl)-1H-pyrazolo[4,3-c]pyridin-1-yl)benzenesulfonamide] | 5.01 to 50.1 nM | ≤ 5.01 nM | ≤ 5.01 nM | > 50.1 nM |
| CNc1cc(OC)c(-n2nc(C)c3cnc(-c4cnn5cccnc45)cc32)cn1 [Example 16, 4-methoxy-N-methyl-5-(3-methyl-6-(pyrazolo[1,5-a]pyrimidin-3-yl)-1H-pyrazolo[4,3-c]pyridin-1-yl)pyridin-2-amine] | 5.01 to 50.1 nM | 5.01 to 50.1 nM | 5.01 to 50.1 nM | > 50.1 nM |
| COc1cc(NS(C)(=O)=O)ccc1-n1nc(NCCN2CCOCC2)c2cnc(-c3cnn4cccnc34)cc21 [Example 24, N-(3-methoxy-4-(3-((2-morpholinoethyl)amino)-6-(pyrazolo[1,5-a]pyrimidin-3-yl)-1H-pyrazolo[4,3-c]pyridin-1-yl)phenyl)methanesulfonamide] | ≤ 5.01 nM | ≤ 5.01 nM | ≤ 5.01 nM | 5.01 to 50.1 nM |
| COc1cc(NS(=O)(=O)C2CC2)ccc1-n1nc(NCCN2CCCCC2)c2cnc(-c3cnn4cccnc34)cc21 [Example 36, N-(3-methoxy-4-(3-((2-(piperidin-1-yl)ethyl)amino)-6-(pyrazolo[1,5-a]pyrimidin-3-yl)-1H-pyrazolo[4,3-c]pyridin-1-yl)phenyl)cyclopropanesulfonamide] | 5.01 to 50.1 nM | 5.01 to 50.1 nM | 5.01 to 50.1 nM | 5.01 to 50.1 nM |
| COc1cc(NS(C)(=O)=O)ccc1-n1nc(NCCCNC(=O)OC(C)(C)C)c2cnc(-c3cnn4cccnc34)cc21 [Example 21, tert-butyl (3-((1-(2-methoxy-4-(methylsulfonamido)phenyl)-6-(pyrazolo[1,5-a]pyrimidin-3-yl)-1H-pyrazolo[4,3-c]pyridin-3-yl)amino)propyl)carbamate] | ≤ 5.01 nM | ≤ 5.01 nM | ≤ 5.01 nM | 5.01 to 50.1 nM |
| COc1cc(NC(=O)c2ccccc2)cnc1-n1nc(C)c2cnc(-c3cnn4cccnc34)cc21 [Example 48, N-(5-methoxy-6-(3-methyl-6-(pyrazolo[1,5-a]pyrimidin-3-yl)-1H-pyrazolo[4,3-c]pyridin-1-yl)pyridin-3-yl)benzamide] | 5.01 to 50.1 nM | ≤ 5.01 nM | ≤ 5.01 nM | 5.01 to 50.1 nM |
| COc1cc(NS(=O)(=O)CC2CCCO2)ccc1-n1nc(C)c2cnc(-c3cnn4cccnc34)cc21 (centres unmarked) [Example 2, N-(3-methoxy-4-(3-methyl-6-(pyrazolo[1,5-a]pyrimidin-3-yl)-1H-pyrazolo[4,3-c]pyridin-1-yl)phenyl)-1-(tetrahydrofuran-2-yl)methanesulfonamide] | 5.01 to 50.1 nM | ≤ 5.01 nM | 5.01 to 50.1 nM | 5.01 to 50.1 nM |
